Data as given in PubChem BioAssay AID1963984 (Molecular Pharmacology Branch, DTP, NCI, 2024).

Tested on: 233499-124-R-J3-PDC spheroids with HUVEC/MSC, viability
Test: Anticancer human tumor 233499-124-R-J3-PDC patient-derived colon adenocarcinoma cell line growth inhibition [PI3K]
Settings: for IC50: curve of first compound; for viability, T/C: stronger effect = lower value
Summary of the method: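 Stroma-containing spheroids: tumor line, pooled-donor HUVEC, hMSC. Treatments: targeted agents with PI3K inhibitors. Dosing: clinically relevant, half-log spacing, 10 microM ceiling without known Cmax. Read-out: cell viability.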

[1] = second compound 0.0316 µM, first compound 0.0316 µM
[2] = second compound 0.0316 µM, first compound 0.1 µM
[3] = second compound 0.0316 µM, first compound 0.316 µM
[4] = second compound 0.0316 µM, first compound 1 µM
[5] = second compound 0.1 µM, first compound 0.0316 µM
[6] = second compound 0.1 µM, first compound 0.1 µM
[7] = second compound 0.1 µM, first compound 0.316 µM
[8] = second compound 0.1 µM, first compound 1 µM
[9] = second compound 0.316 µM, first compound 0.0316 µM
[10] = second compound 0.316 µM, first compound 0.1 µM
[11] = second compound 0.316 µM, first compound 0.316 µM
[12] = second compound 0.316 µM, first compound 1 µM
[13] = second compound 1 µM, first compound 0.0316 µM
[14] = second compound 1 µM, first compound 0.1 µM
[15] = second compound 1 µM, first compound 0.316 µM
[16] = second compound 1 µM, first compound 1 µM
[17] = second compound 3.16 µM, first compound 0.0316 µM
[18] = second compound 3.16 µM, first compound 0.1 µM
[19] = second compound 3.16 µM, first compound 0.316 µM
[20] = second compound 3.16 µM, first compound 1 µM
[21] = second compound 10 µM, first compound 0.0316 µM
[22] = second compound 10 µM, first compound 0.1 µM
[23] = second compound 10 µM, first compound 0.316 µM
[24] = second compound 10 µM, first compound 1 µM
[25] = second compound 0.0316 µM, first compound 0.00316 µM
[26] = second compound 0.0316 µM, first compound 0.01 µM
[27] = second compound 0.1 µM, first compound 0.00316 µM
[28] = second compound 0.1 µM, first compound 0.01 µM
[29] = second compound 0.316 µM, first compound 0.00316 µM
[30] = second compound 0.316 µM, first compound 0.01 µM
[31] = second compound 1 µM, first compound 0.00316 µM
[32] = second compound 1 µM, first compound 0.01 µM
[33] = second compound 3.16 µM, first compound 0.00316 µM
[34] = second compound 3.16 µM, first compound 0.01 µM
[35] = second compound 10 µM, first compound 0.00316 µM
[36] = second compound 10 µM, first compound 0.01 µM
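Also: spheroids exposed to agents for seven days before readout.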
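For viability, T/C in this document: percent viability relative to DMSO vehicle control taken as 100%.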

CC(C)NCC(C(=O)N1CCN(c2ncnc3c2C(C)CC3O)CC1)c1ccc(Cl)cc1 (stereo unspecified) + CC(Nc1ncnc2nc[nH]c12)c1cc2cccc(Cl)c2c(=O)n1-c1ccccc1
IC50 (second compound 0.0316 µM): > 10000 nM | IC50 (second compound 0.1 µM): > 10000 nM | IC50 (second compound 0.316 µM): > 10000 nM | IC50 (second compound 1 µM): > 10000 nM | IC50 (second compound 3.16 µM): > 10000 nM | IC50 (second compound 10 µM): > 10000 nM | viability, T/C [1]: 86.1% | viability, T/C [2]: 100% | viability, T/C [3]: 94.8% | viability, T/C [4]: 94.8% | viability, T/C (second compound 0.0316 µM, first compound 3.16 µM): 77.1% | viability, T/C (second compound 0.0316 µM, first compound 10 µM): 74.5% | viability, T/C [5]: 93.3% | viability, T/C [6]: 96.7% | viability, T/C [7]: 77.6% | viability, T/C [8]: 83.8% | viability, T/C (second compound 0.1 µM, first compound 3.16 µM): 110% | viability, T/C (second compound 0.1 µM, first compound 10 µM): 87.4% | viability, T/C [9]: 95.7% | viability, T/C [10]: 102% | viability, T/C [11]: 95.8% | viability, T/C [12]: 87.8% | viability, T/C (second compound 0.316 µM, first compound 3.16 µM): 86.9% | viability, T/C (second compound 0.316 µM, first compound 10 µM): 71.9% | viability, T/C [13]: 91.1% | viability, T/C [14]: 88.3% | viability, T/C [15]: 88.1% | viability, T/C [16]: 106% | viability, T/C (second compound 1 µM, first compound 3.16 µM): 82.1% | viability, T/C (second compound 1 µM, first compound 10 µM): 65.2% | viability, T/C [17]: 91% | viability, T/C [18]: 93.6% | viability, T/C [19]: 96.9% | viability, T/C [20]: 85.7% | viability, T/C (second compound 3.16 µM, first compound 3.16 µM): 81.1% | viability, T/C (second compound 3.16 µM, first compound 10 µM): 77.5% | viability, T/C [21]: 78% | viability, T/C [22]: 89.9% | viability, T/C [23]: 87.4% | viability, T/C [24]: 68.8% | viability, T/C (second compound 10 µM, first compound 3.16 µM): 99.5% | viability, T/C (second compound 10 µM, first compound 10 µM): 88%

CCN1CCN(Cc2ccc(Nc3ncc(F)c(-c4cc(F)c5nc(C)n(C(C)C)c5c4)n3)nc2)CC1 + CC(Nc1ncnc2nc[nH]c12)c1cc2cccc(Cl)c2c(=O)n1-c1ccccc1
IC50 (second compound 0.0316 µM): 916 nM | IC50 (second compound 0.1 µM): 832 nM | IC50 (second compound 0.316 µM): 788 nM | IC50 (second compound 1 µM): 963 nM | IC50 (second compound 3.16 µM): 214 nM | IC50 (second compound 10 µM): 193 nM | viability, T/C [25]: 102% | viability, T/C [26]: 93.5% | viability, T/C [1]: 83.2% | viability, T/C [2]: 70.1% | viability, T/C [3]: 61.5% | viability, T/C [4]: 48.5% | viability, T/C [27]: 101% | viability, T/C [28]: 108% | viability, T/C [5]: 86.7% | viability, T/C [6]: 73.8% | viability, T/C [7]: 61.4% | viability, T/C [8]: 47% | viability, T/C [29]: 97.1% | viability, T/C [30]: 87.3% | viability, T/C [9]: 85.4% | viability, T/C [10]: 84.2% | viability, T/C [11]: 66.3% | viability, T/C [12]: 45.2% | viability, T/C [31]: 104% | viability, T/C [32]: 90.8% | viability, T/C [13]: 76% | viability, T/C [14]: 83.8% | viability, T/C [15]: 54.3% | viability, T/C [16]: 50.8% | viability, T/C [33]: 80.2% | viability, T/C [34]: 79.2% | viability, T/C [17]: 95.2% | viability, T/C [18]: 72.6% | viability, T/C [19]: 39% | viability, T/C [20]: 32.8% | viability, T/C [35]: 75.9% | viability, T/C [36]: 73.7% | viability, T/C [21]: 90.8% | viability, T/C [22]: 57% | viability, T/C [23]: 51% | viability, T/C [24]: 38.4%

Cn1ncnc1[C@H]1c2n[nH]c(=O)c3cc(F)cc(c23)N[C@@H]1c1ccc(F)cc1 + CC(Nc1ncnc2nc[nH]c12)c1cc2cccc(Cl)c2c(=O)n1-c1ccccc1
IC50 (second compound 0.0316 µM): > 100 nM | IC50 (second compound 0.1 µM): > 100 nM | IC50 (second compound 0.316 µM): > 100 nM | IC50 (second compound 1 µM): > 100 nM | IC50 (second compound 3.16 µM): > 100 nM | IC50 (second compound 10 µM): > 100 nM | viability, T/C (second compound 0.0316 µM, first compound 0.000316 µM): 90.9% | viability, T/C (second compound 0.0316 µM, first compound 0.001 µM): 82% | viability, T/C [25]: 84.9% | viability, T/C [26]: 87.8% | viability, T/C [1]: 75.4% | viability, T/C [2]: 69% | viability, T/C (second compound 0.1 µM, first compound 0.000316 µM): 99.7% | viability, T/C (second compound 0.1 µM, first compound 0.001 µM): 106% | viability, T/C [27]: 70.9% | viability, T/C [28]: 73.4% | viability, T/C [5]: 74.1% | viability, T/C [6]: 72.2% | viability, T/C (second compound 0.316 µM, first compound 0.000316 µM): 90% | viability, T/C (second compound 0.316 µM, first compound 0.001 µM): 94.7% | viability, T/C [29]: 70.3% | viability, T/C [30]: 76.7% | viability, T/C [9]: 64.9% | viability, T/C [10]: 70% | viability, T/C (second compound 1 µM, first compound 0.000316 µM): 85.7% | viability, T/C (second compound 1 µM, first compound 0.001 µM): 77.8% | viability, T/C [31]: 89% | viability, T/C [32]: 84.2% | viability, T/C [13]: 77.7% | viability, T/C [14]: 54.1% | viability, T/C (second compound 3.16 µM, first compound 0.000316 µM): 79.9% | viability, T/C (second compound 3.16 µM, first compound 0.001 µM): 85.9% | viability, T/C [33]: 90.3% | viability, T/C [34]: 82.4% | viability, T/C [17]: 76.8% | viability, T/C [18]: 76.5% | viability, T/C (second compound 10 µM, first compound 0.000316 µM): 89.7% | viability, T/C (second compound 10 µM, first compound 0.001 µM): 71.3% | viability, T/C [35]: 85.2% | viability, T/C [36]: 92.3% | viability, T/C [21]: 66.9% | viability, T/C [22]: 72.2%
